# Laboratory results taken from patent US20100298234A1, “Cancer therapeutic agents comprising a ligand for the neuromedin u receptor 2 (fm4) molecule as an active ingredient” (priority 2006, published 2010).
# Legend:
# FM4 [1] = target: T1, FM4 (Homo sapiens, UniProt Q9GZQ4, A395T/C204F); experiment: Intracellular Ca2+ concentration measurement (Fluo 4 AM) in FM4-expressing CHO cells; assay type: cell-based; details: FM4-CHO cell line, 2.5 μM NmU, FIG. 3
# T1 construct: using Pyrobest Taq polymerase (Takara) to clone the full-length FM4 gene; expressed in transfected cells
# T1 sequence (Q9GZQ4 whole entry C204F/A395T): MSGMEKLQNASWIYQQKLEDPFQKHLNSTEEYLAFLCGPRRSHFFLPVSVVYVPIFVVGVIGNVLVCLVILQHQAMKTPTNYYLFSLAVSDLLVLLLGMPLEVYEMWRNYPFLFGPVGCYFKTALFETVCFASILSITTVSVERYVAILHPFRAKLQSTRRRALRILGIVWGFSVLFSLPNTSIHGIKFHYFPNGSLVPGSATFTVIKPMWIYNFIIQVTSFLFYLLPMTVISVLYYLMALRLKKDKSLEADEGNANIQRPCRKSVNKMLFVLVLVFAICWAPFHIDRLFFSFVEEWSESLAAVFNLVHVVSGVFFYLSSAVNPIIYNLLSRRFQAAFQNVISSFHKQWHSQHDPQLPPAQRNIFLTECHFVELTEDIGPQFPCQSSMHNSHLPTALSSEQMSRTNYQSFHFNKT
# Procedure: 15 μg of linearized FM4 expression vector (pMCN-FM4) obtained by digestion with PvuI was introduced into CHO cells by electroporation (Gene Pulser; BioRad) at 1.5 kV, 25 μFD. The cells were cultured in a medium containing 500 μg/mL of G418, and G418-resistant cells were picked. NmU was added to these cells, and cell lines that reacted to NmU were selected using the increase in intracellular Ca^2+ concentration as an index.
# (§1) The cells were detached using trypsin, plated onto a 96-well plate (black plate for fluorescence measurement) at 2×10^4 cells/well, and after culturing overnight, they were used for intracellular calcium measurements. Measurement of the intracellular calcium concentration was performed as follows.
# After removing the medium, an Fluo 4 AM solution [2% FCS, 3 μM Fluo 4 AM (Molecular PROBES) in assay buffer (2 mM HEPES, 1.5 mM probenecid in HBSS)] was added at 50 μL/well. After incubation in the dark at 37° C. for 30 minutes, the cells were washed three times in the assay buffer. Then, an assay buffer that contains 2.5 μM of NmU (Funakoshi) was added, and the intracellular Ca^2+-dependent fluorescence trace at 490-nm excitation was monitored on a plate reader for fluorimetric analysis (Fusion; Perkin Elmer).
# FM4 [2] = target: T1, FM4; experiment: Intracellular Ca2+ concentration in FM4-expressing PANC1 cells (FM4-PANC1); assay type: cell-based; details: FM4-PANC1, NmU 1 μM, FIG. 6
# Procedure: as §1
# After removing the medium, an Fluo 4 AM solution [2% FCS, 3 μM Fluo 4 AM (Molecular PROBES) in assay buffer (2 mM HEPES, 1.5 mM probenecid in HBSS)] was added at 50 μL/well. After incubation in the dark at 37° C. for 30 minutes, the cells were washed three times in the assay buffer. […]
# In order to confirm that the NmU signaling is transmitted into the cell in the obtained FM4-expressing PANC1 cells (FM4-PANC1), whether the addition of NmU increased the intracellular Ca^2+ concentration was analyzed. […] This confirmed that in the established FM4-PANC1 cells, NmU stimulation causes the FM4-mediated signaling to be transmitted into the cell.
# FM4-CHO cells [3] = experiment: Proliferation-suppressing effect, WST-8 assay, FM4-CHO; assay type: cell-based, Chinese hamster; details: NmU 0.096 μM to 60 μM, 48 hours, FIG. 4A
# Procedure: FM4-CHO cells were plated onto a 96-well plate at 2×10^3 cells/well. On the following day, NmU was added to each well at various concentrations (0.096 μM to 60 μM) and the cells were cultured. 48 Hours later, the number of viable cells were analyzed by WST-8 assay (Cell counting kit-8, Dojindo Laboratories).
# PANC-1 = experiment: Proliferation of pancreatic cancer cell line PANC-1; assay type: cell-based, human; details: PANC-1, NmU 0.096 μM to 60 μM, 72 hours, FIG. 4B
# Procedure: (§2) On the following day, NmU was added to each well at 0.096 μM to 60 μM. Seventy-two hours later, the number of cells was determined.
# Capan-1 = experiment: Proliferation of pancreatic cancer cell line Capan-1; assay type: cell-based, human; details: Capan-1 (high FM4 gene expression), NmU 0.096 μM to 60 μM, 72 hours, FIG. 4B
# Procedure: as §2
# PANC1 cells = experiment: Soft agar colony formation assay, parent PANC1 cells; assay type: cell-based, human; details: parent cell line PANC1 that does not express FM4, NmU 1 μM, one month, FIG. 7
# Procedure: (§3) To analyze the effect of NmU on the ability of this cell to form colonies, soft agar colony formation assay was performed. Soft agar colony formation assay was performed as follows.
# (§4) Base agar (0.5% agar, 1×MEM, and 10% FCS) was added to each well of a 6-well plate at 1.5 mL/well, and then 1.5 mL/well (0.5×10^4 cells/well) of PANC1 cells or FM4-PANC1 cells in the presence or absence of NmU (1 μM) in top agar (0.35% agar, 1×MEM, and 10% FCS) was added at to each of the wells. After culturing for one month, the number of colony forming cells in the soft agar was counted under a microscope.
# FM4-PANC1 cells = experiment: Soft agar colony formation assay, FM4-PANC1 cells; assay type: cell-based, human; details: FM4-PANC1, NmU 1 μM, one month, FIG. 7
# Procedure: as §3, §4
# FM4-CHO cells [4] = experiment: Cell morphology of FM4-CHO cells under a microscope after NmU stimulation; assay type: cell-based, Chinese hamster; details: FM4-CHO stimulated with NmU, in approximately 12 hours, FIG. 8
# Text: The cell morphology of FM4-CHO cells which were forced to express FM4 was observed under a microscope.
# This led to the speculation that NmU is involved in signal transduction that regulates cell adhesion and cell movement.
# CHO cells = experiment: Wound healing assay (cell movement), parent CHO cells; assay type: cell-based, Chinese hamster; details: NmU 5 μM, serum-free medium, 24 hours, FIG. 9
# Procedure: (§5) Next, the effect of NmU on cell movement ability was analyzed by wound healing assay. Parent cell line CHO cells and FM4-CHO cells were grown to confluency in plates, and wounded with a pipette tip to make a fixed clearance between the cells. After washing the cells twice with PBS, the cells were cultured in a serum-free culture medium in the presence or absence of NmU (5 μM). Twenty-four hours later, cells that moved into the clearance between the cells were observed and photographed under a microscope.
# FM4-CHO cells [5] = experiment: Wound healing assay (cell movement), FM4-CHO cells; assay type: cell-based, Chinese hamster; details: NmU 5 μM, serum-free medium, 24 hours, FIG. 9
# Procedure: as §5
# FM3 = details: CHO, HEK-293 and COS-7 cells forced to express FM3; cited from earlier work
# FM4 [6] = target: T2, FM4 (Homo sapiens, UniProt Q9GZQ4); details: CHO, HEK-293 and COS-7 cells forced to express FM4; cited from earlier work
# T2 construct: host or cells: CHO, HEK-293 and COS-7 cells with forced expression
# T2 sequence (Q9GZQ4 whole entry): as the sequence (Q9GZQ4 whole entry C204F/A395T) above, with F204C, T395A counted along it
# [7] = administration into the cerebral ventricle; cited from earlier work
substance,measurement,setting,value
"NmU: biologically active peptide, endogenous ligand for FM3 and FM4; polypeptide of SEQ ID NO: 14; NmU (Funakoshi) used in the tests (FRVDEEFQSPFASQSRGYFLFRPRN; listed as Homo sapiens)",intracellular Ca2+ concentration,FM4 [1],quickly increased
same,intracellular Ca2+ concentration,FM4 [2],increase of the intracellular Ca^2+ concentration
same,"proliferation (number of viable cells, WST-8)",FM4-CHO cells [3],suppressed proliferation of FM4-CHO at low concentration
same,proliferation (number of cells),PANC-1,did not act at all on the proliferation
same,proliferation (number of cells),Capan-1,proliferation-suppressing effect of NmU was observed
same,colony forming ability in soft agar,PANC1 cells,did not have any effect
same,colony forming ability in soft agar,FM4-PANC1 cells,colony formation-suppressing effect by NmU was confirmed
same,cell morphology,FM4-CHO cells [4],significant morphological alterations of the cells such as disappearance of cell protrusions
same,cell movement,CHO cells,did not have any effect
same,cell movement,FM4-CHO cells [5],completely inhibited
same,intracellular calcium ion concentration,FM3,induced increase of intracellular calcium ion concentration at the nanomolar level
same,intracellular calcium ion concentration,FM4 [6],induced increase of intracellular calcium ion concentration at the nanomolar level
same,food/feed intake,[7],significant reduction in overnight food intake and starvation-induced feeding
